# What was measured:
# Type in all cases: cell-based
# [1] = target: T1, β1-Adrenoceptor (Rattus norvegicus, UniProt P18090); assay: β1-Adrenoceptor stimulating effects: heart rate increase in isolated rat atrium (Magnus method); settings: isolated atria of male SD rats
# T1 construct: Atria of male SD rats (350 to 400 g in body weight) were isolated; from tissue; host or cells: isolated atria of male SD rats
# Protocol: Atria of male SD rats (350 to 400 g in body weight) were isolated and the experiment was conducted according to the Magnus methods. The preparations with a tension of 1 g were exposed to Krebs-Henseleit solution maintained at 37° C. and gassed with a mixture of 95% oxygen and 5% carbon dioxide. The cardiac contractility was isometrically measured with a force-displacement transducer and recorded by a rectigraph. The drug efficacy was evaluated as the molar concentration required to produce 20 beats/minute increment of the heart rate (i.e., ECΔ20 value).
# [2] = target: β3-Adrenoceptor (Mustela putorius furo, UniProt M3YEU4); assay: β3-Adrenoceptor stimulating effects: inhibition of spontaneous contractions of isolated ferret ureter (Magnus method); settings: isolated male ferret ureter, cumulative addition every 3 minutes, read-out: EC50 value (concentration required to produce 50% inhibition of ureter contractions), Test Example 2
# Protocol: After removal of connective tissue, longitudinal smooth muscle strips of approximately 20 mm in length were prepared. The experiment was conducted according to the Magnus method. The preparations with a tension of 0.5 g were exposed to Krebs-Henseleit solution maintained at 37° C. and gassed with a mixture of 95% oxygen and 5% carbon dioxide. Spontaneous contractions of ureters were isometrically measured with a force-displacement transducer and recorded by a rectigraph. The drug was cumulatively added to the Magnus bath every 3 minutes.
# [3] = target: T2, β2-Adrenoceptor (Rattus norvegicus, UniProt P10608); assay: β2-Adrenoceptor stimulating effects: inhibition of spontaneous contractions of isolated pregnant rat uterus (Magnus method); settings: isolated uterus of pregnant SD rats (day 21), cumulative addition every 5 minutes, read-out: EC50 value (concentration required to produce 50% inhibition of uterine contractions), Test Example 1
# T2 construct: Uteri of pregnant SD rats (pregnancy day 21) were isolated and longitudinal smooth muscle strips; from tissue; host or cells: longitudinal smooth muscle strips of pregnant SD rat uterus (day 21)
# Protocol: Uteri of pregnant SD rats (pregnancy day 21) were isolated and longitudinal smooth muscle strips of approximately 15 mm in length and approximately 5 mm in width free from the basal plate were prepared. The experiment was conducted according to the Magnus method. The preparations with a tension of 1 g were exposed to Locke-Ringer solution maintained at 37° C. and gassed with a mixture of 95% oxygen and 5% carbon dioxide. Spontaneous contractions of myometrium were isometrically measured with a force-displacement transducer and recorded by a rectigraph. The drug was cumulatively added to the Magnus bath every 5 minutes. The drug efficacy was evaluated as the concentration of the drug required to produce 50% of the inhibition of uterine contractions (i.e., EC50 value) by comparing the sum of uterine contractions during 5 minutes after the addition of the drug with the sum of uterine contractions during 5 minutes before the addition of the drug (100%).
# T2 sequence (P10608 whole entry): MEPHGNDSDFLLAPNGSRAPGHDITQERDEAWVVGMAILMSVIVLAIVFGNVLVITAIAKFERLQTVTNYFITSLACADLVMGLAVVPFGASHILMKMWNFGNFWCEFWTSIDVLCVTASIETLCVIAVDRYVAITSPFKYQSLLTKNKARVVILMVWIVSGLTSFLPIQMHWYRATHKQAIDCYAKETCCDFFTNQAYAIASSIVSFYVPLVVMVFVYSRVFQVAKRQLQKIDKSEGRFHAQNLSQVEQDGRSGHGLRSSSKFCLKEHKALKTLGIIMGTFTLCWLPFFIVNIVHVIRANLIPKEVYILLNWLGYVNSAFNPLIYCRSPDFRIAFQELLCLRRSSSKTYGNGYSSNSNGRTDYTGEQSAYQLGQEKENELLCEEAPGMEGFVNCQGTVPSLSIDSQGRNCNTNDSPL
# T1 sequence (P18090 whole entry): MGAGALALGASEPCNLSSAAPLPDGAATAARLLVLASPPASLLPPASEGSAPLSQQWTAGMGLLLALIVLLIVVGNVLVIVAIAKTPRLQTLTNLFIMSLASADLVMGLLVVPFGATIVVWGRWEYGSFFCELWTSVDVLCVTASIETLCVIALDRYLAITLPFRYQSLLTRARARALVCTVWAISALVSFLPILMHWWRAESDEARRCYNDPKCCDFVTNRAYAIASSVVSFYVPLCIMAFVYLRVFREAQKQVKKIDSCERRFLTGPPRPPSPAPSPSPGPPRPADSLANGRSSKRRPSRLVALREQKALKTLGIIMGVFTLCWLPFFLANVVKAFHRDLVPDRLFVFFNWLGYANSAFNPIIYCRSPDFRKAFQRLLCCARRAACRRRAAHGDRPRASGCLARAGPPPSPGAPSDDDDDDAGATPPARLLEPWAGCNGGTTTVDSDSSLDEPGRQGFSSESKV
# β3-Adrenoceptor, sequence (M3YEU4 entry or part of it): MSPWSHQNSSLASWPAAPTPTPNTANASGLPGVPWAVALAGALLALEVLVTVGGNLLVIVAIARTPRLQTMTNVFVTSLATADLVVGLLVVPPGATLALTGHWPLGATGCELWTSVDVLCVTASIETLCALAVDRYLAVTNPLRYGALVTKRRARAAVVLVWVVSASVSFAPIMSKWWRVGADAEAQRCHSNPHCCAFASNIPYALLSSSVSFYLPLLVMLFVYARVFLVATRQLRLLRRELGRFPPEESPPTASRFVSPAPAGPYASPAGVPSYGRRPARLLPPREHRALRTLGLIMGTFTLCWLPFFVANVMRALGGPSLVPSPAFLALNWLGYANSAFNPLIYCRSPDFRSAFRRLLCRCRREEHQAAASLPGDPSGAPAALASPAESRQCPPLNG
Structure (SMILES),"ECΔ20 value (molar concentration required to produce 20 beats/minute increment of the heart rate), Test Example 3 [1] [nM]","ECΔ20 value (molar concentration required to produce 20 beats/minute increment of the heart rate), Test Example 3 ([1]; listed as 2-[4-[2-[[(1S,2R)-2-hydroxy-2-(4-hydroxyphenyl)-1-methylethyl]amino]ethyl]phenox) [nM]",EC50 [2] [nM],EC50 [3] [nM]
"C[C@H](NCCc1ccc(OCC(=O)O)cc1)[C@H](O)c1ccc(O)cc1 [Compound 9, 2-[4-[2-[[(1S,2R)-2-Hydroxy-2-(4-hydroxyphenyl)-1-methylethyl]-amino]ethyl]phenoxy]acetic acid]",1300,1300,14,
"C[C@H](NCCc1ccc(OCC(=O)O)cc1F)[C@H](O)c1ccc(O)cc1 [Compound 10, 2-[3-Fluoro-4-[2-[[(1S,2R)-2-hydroxy-2-(4-hydroxyphenyl)-1-methyl-ethyl]amino]ethyl]phenoxy]acetic acid]",1000,,,39
"C[C@H](NCCc1ccc(OCC(=O)OCc2ccccc2)cc1F)[C@H](O)c1ccc(O)cc1.Cl [Compound 7, Benzyl 2-[3-fluoro-4-[2-[[(1S,2R)-2-hydroxy-2-(4-hydroxyphenyl)-1-methylethyl]amino]ethyl]phenoxy]acetate hydrochloride]",300,,,3.3
"C[C@H](NCCc1ccc(OCC(=O)O)cc1Cl)[C@H](O)c1ccc(O)cc1 [Compound 8, 2-[3-Chloro-4-[2-[[(1S,2R)-2-hydroxy-2-(4-hydroxyphenyl)-1-methyl-ethyl]amino]ethyl]phenoxy]acetic acid]",110,,,13
